Measurements: publication PMC5500990 (European Journal of Medicinal Chemistry, 2017)
Where a SMILES comes first, the peptide text is derived from it. [ ]: non-standard residue; d: D form. dNMeF = CN[C@H](Cc1ccccc1)C(=O)O

Columns and labels:
DMS79 cells [1] = test: Annexin V conjugate / SYTOX Blue flow cytometric analysis of apoptosis; type: cell-based, human; details: 24 h, n = 3
Procedure: The novel potent N^ind-butylated peptide, 16, and its unmodified version 1 [26] were incubated for 24 h with DMS79 cells and double stained using Annexin V Fluor® 555 (AnnV) conjugate and SYTOX® Blue (SyB) dead cell stain [29], [32]. The former stain binds to phosphatidyl serine (PS) residues that become exposed at the outer surface of the plasma membrane of cells undergoing apoptosis. DMS79 cell line was selected as a variant cell line model more resistant to chemotherapy since it is established from a SCLC patient treated with three different chemotherapeutics and radiation therapy. Peptide 16 was the most cytotoxic against this cell line (Table 1).
Quantitative assessment of apoptosis was evaluated at low (2 μM) and high (6 μM) peptide concentrations using flow cytometry. A bar-chart (Fig. 6) presents the levels of cells classified into four stages; live cells (AnnV-/SyB-), early apoptotic cells (AnnV+/SyB-), late apoptotic cells (AnnV+/SyB+) and necrotic cells (AnnV-/SyB+). Dot blots are presented in the SD (Fig. S37). […] In contrast, the singly butylated peptide (16) caused highly significant (P < 0.0005) apoptosis in a concentration dependent manner. Even at a low concentration of peptide (2 μM), a small increase (P < 0.05) of early apoptotic cells was observed relative to the control sample.
The experiment was performed according to manufacturer's instructions. Briefly, DMS79 cells were seeded in 12-well plates at a seeding density of 1 × 10^5 cells/well/1980 μl complete medium. Negative control (untreated), peptides at final well concentrations of 2 and 6 μM were prepared and incubated as the above conditions stated in Section 5.1 for 24 h (total volume of wells was 2 ml). The contents of the wells were then carefully transferred into Eppendorf® tubes and centrifuged for 5 min at 500 rpm and the media discarded. Cells pellets were washed with cold PBS. Cells were gently re-suspended in 100 μl annexin-binding buffer followed by the addition of 5 μl of the Annexin V conjugate (Alexa Fluor® 555) and 0.5 μl of dead cell stain (SYTOX® Blue). Tubes were left for 10 min at RT, then 400 μl of annexin-binding buffer were added and samples were analysed on a flow cytometer (BD Biosciences - LSR Fortessa; Diva 8.0.1 software; Annexin V conjugate was excited with 561 nm laser and fluorescence measured using a 586/15 nm bandpass filter; dead cell stain was excited with 405 nm laser and fluorescence measured using 450/50 nm bandpass filter). Assays were repeated three independent times.

H69 and DMS79 cells = system: H69 and DMS79 cells; design: method as in PMID 30108771; details: range over both cell lines; read-out: IC50 values in the range against H69 and DMS79; cited from earlier work
H69 cells = system: H69 cells; design: method as in PMID 30108771; details: treatment for 48 h; obtained previously; read-out: IC50 ± SE, H69 Cells; cited from earlier work
DMS79 cells [2] = system: DMS79 cells; design: method as in PMID 30108771; details: treatment for 48 h; obtained previously; read-out: IC50 ± SE, DMS79 Cells; cited from earlier work

CN[C@H](Cc1ccccc1)C(=O)N[C@H](Cc1c[nH]c2ccccc12)C(=O)N[C@@H](Cc1ccccc1)C(=O)N[C@H](Cc1c[nH]c2ccccc12)C(=O)N[C@@H](CC(C)C)C(N)=O [Peptide 1, DMePhe-DTrp-Phe-DTrp-Leu-NH2] (H-[dNMeF][dW]F[dW]L-NH2; N-terminus assumed)
% events, early apoptotic cells (AnnV+/SyB-) (DMS79 cells [1]; DMS79, 2 μM): 6.2%
% events, late apoptotic cells (AnnV+/SyB+) (DMS79 cells [1]; DMS79, 2 μM): 23.9%
% events, live cells (AnnV-/SyB-) (DMS79 cells [1]; DMS79, 2 μM): 67.6%
% events, necrotic cells (AnnV-/SyB+) (DMS79 cells [1]; DMS79, 2 μM): 2.3%
% events, early apoptotic cells (AnnV+/SyB-) (DMS79 cells [1]; DMS79, 6 μM): 6.6%
% events, late apoptotic cells (AnnV+/SyB+) (DMS79 cells [1]; DMS79, 6 μM): 22.9%
% events, live cells (AnnV-/SyB-) (DMS79 cells [1]; DMS79, 6 μM): 68.3%
% events, necrotic cells (AnnV-/SyB+) (DMS79 cells [1]; DMS79, 6 μM): 2.2%
IC50 (H69 and DMS79 cells): 23 to 31 µM

[Arg^6,D-Trp^7,9,MePhe^8]SP (6–11) [SPG]
IC50 (H69 cells): > 30 µM
IC50 (DMS79 cells [2]): > 30 µM
